Measurements published in PubChem BioAssay (NCI).
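Growth conditions: 96-well plates. Treatment: test compound, 48 hours, 5 concentrations. Analysis: linear interpolation between bracketing concentrations; unreached endpoints set to highest concentration. GI50 marks 50% less growth. Definition used: TGI = concentration required for complete inhibition of growth.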

Assays:
Test in all cases: DTP human tumour cell line panel, 48 h
[1] = system: CCRF-CEM leukemia
[2] = system: BT-549 breast
[3] = system: DU-145 prostate
[4] = system: SF-295 CNS
[5] = system: M14 melanoma
[6] = system: SR leukemia

SMILES | GI50 [1] [µM] | TGI [1] [µM] | GI50 [2] [µM] | TGI [2] [µM] | GI50 [3] [µM] | TGI [3] [µM] | GI50 [4] [µM] | TGI [4] [µM] | GI50 [5] [µM] | TGI [5] [µM] | TGI [6] [µM] | GI50 [6] [µM]
C=CCCC(O)c1ccc(CCCCCCCCCCC)o1 (stereo unspecified) | 19.3 | 40 | 16.7 | 30.7 | 16.4 | 31.1 | 14.2 | 30.4 | 17.2 | 32.4 | – | –
O=[N+]([O-])c1ccc(NN=C2c3ccccc3Cc3ccccc32)c([N+](=O)[O-])c1 | – | 18.2 | – | > 100 | – | > 100 | – | > 100 | – | > 100 | 11.5 | –
COc1cc(C2C(C(=O)OCc3ccccc3)=C(C)NC(C)=C2C(=O)OCc2ccccc2)cc(OC)c1OC | – | – | 3.3 | > 100 | – | – | 2.86 | > 100 | – | – | > 100 | 2.22
O=C1c2ccccc2CCC1(Br)Br | 0.365 | 2.01 | 2 | 4.96 | 3.73 | 12 | 14.6 | 28 | 2.08 | 5.12 | 3.9 | 0.67
Cc1[nH]c2ccccc2c1C1=CC(=O)C=CC1=O | – | – | 11.1 | 24.4 | 13.4 | 26.8 | 16.4 | 41 | 13.6 | 27.7 | – | –
CNC(=O)c1c(NC(=O)c2ccc(C(C)C)cc2)sc2c1CCC(=O)C2 | 0.146 | – | 0.505 | 2.71 | 3.25 | 12.2 | 1.13 | 3.35 | 0.454 | 2.03 | 4.45 | 0.273
CC(C)NCCCCCNc1cc(O)cc2cccnc12 | > 51.2 | > 100 | > 37.7 | > 100 | > 100 | > 100 | > 100 | > 100 | > 100 | > 100 | > 100 | > 100
Cc1ccc2nc(CC(=O)c3ccc4ccccc4c3)c(=O)[nH]c2c1 | – | > 100 | – | > 100 | – | > 100 | – | > 100 | – | > 100 | > 100 | –
O=C(NCc1cccs1)OC1CC2CCC1C2 (stereo unspecified) | – | > 100 | – | > 100 | – | > 100 | – | > 100 | – | > 100 | > 100 | –
Cc1cccc2c1NC(=O)C2(c1ccc(O)cc1)c1ccc(O)cc1 | 22.3 | > 100 | < 0.01 | – | 15.3 | 55.4 | 12.6 | 38.1 | 15.5 | 41 | 45.4 | 14
O=C(O)C1CCCCC1C(=O)Nc1nc2ccccc2[nH]1 (stereo unspecified) | – | > 100 | – | > 100 | – | > 100 | – | > 100 | – | > 100 | > 100 | –
O=C(c1ccncc1)N1CCN(C2=NS(=O)(=O)c3ccccc3N2c2ccccc2)CC1 | 1.95 | > 100 | 17.1 | 52.1 | 7.77 | > 100 | 9.87 | > 100 | 13.3 | > 100 | 2.42 | 0.177
CC(=O)Nc1ccc(S(=O)(=O)c2ccc(NC(C)=O)cc2)cc1 | > 100 | > 100 | > 100 | > 100 | > 100 | > 100 | – | – | > 100 | > 100 | > 100 | > 100
Nc1nc(Cl)nc2c1ncn2C1CCC(COP(=O)(O)OP(=O)(O)OP(=O)(O)O)O1 (stereo unspecified) | – | > 100 | – | – | – | 69.8 | – | 58.4 | – | 36.7 | > 100 | –
C/C=C(\C)C(=O)OC1C2C(C)C(=O)OC2C(O)C(C)C2C=CC(=O)C21C (stereo unspecified) | – | 35.1 | – | 25.2 | – | 24.7 | – | 32.7 | – | 31.3 | 18.3 | –
Cc1nn(-c2ccccc2)c(C)c1/C=N/N1CCN(Cc2ccccc2)CC1 | – | – | 48.2 | > 100 | 96.4 | > 100 | > 100 | > 100 | – | – | 35.1 | 13.8
Nc1ncnc2c1c(C(=O)NO)cn2C1OC(CO)C(O)C1O (stereo unspecified) | 0.235 | > 100 | 0.426 | 19.2 | 0.224 | – | 0.193 | 1.13 | 0.285 | 1.53 | 1.88 | 0.329
O=C(O)CP(=O)(c1ccccc1)c1ccccc1.O=C(O)CP(=O)(c1ccccc1)c1ccccc1.[Cd] | – | – | – | – | 19.4 | 41.3 | 30.5 | > 100 | 17.3 | 53.8 | 31.8 | 13.6
Cc1csc(-c2ccc3c(c2)COC3(CCCN(C)C)c2ccc(F)cc2)c1 (stereo unspecified) | 2.21 | 5.35 | 1.6 | 3.2 | 1.91 | 3.56 | 1.84 | 3.52 | 1.81 | 3.59 | – | –
CCCC(=O)Nc1ncnc2c1ncn2C1OC2COP(=O)(O)OC2C1OC(=O)CCC (stereo unspecified) | – | > 1000 | – | > 1000 | > 1000 | > 1000 | > 1000 | > 1000 | > 1000 | > 1000 | > 1000 | –
Cc1cc(O)c(O)c(Oc2cc(C)cc(O)c2O)c1 | – | 7.46 | – | 78.9 | – | > 100 | – | 55.7 | – | 49.3 | 43.5 | –
CNc1ccc(C(=O)CC(O)CCC(C)C2OC(=O)CC(O)CC(=O)CC(O)CC(O)CC(O)CC(O)CC3(O)CC(O)C(C(=O)NCCc4ccccn4)C(CC(OC4OC(C)C(O)C(N)C4O)/C=C/C=C/C=C/C=C\C=C/C=C/C=C/C2C)O3)cc1 (stereo unspecified) | 1.77 | > 50 | 1.27 | > 50 | 0.183 | 0.672 | 1.05 | 11.4 | 0.165 | – | – | –
O=C1C(Cl)=C(Nc2cccc(O)c2)C(=O)N1c1ccc(Cl)cc1Cl | 17.5 | 46.9 | 13.9 | 54.6 | 23.1 | 90.5 | 27.2 | 86 | 47.6 | > 100 | 26.9 | 2.76
COc1ccc(C(=O)c2cc(OC)c(OC)c(OC)c2)cc1/C=C/C(=O)c1ccc2c(c1)OCO2 | 0.583 | > 100 | – | – | 4.25 | > 100 | 3.43 | 17.2 | – | – | – | –
